pIC50: −log10 of the molar value. Structures can show the parent of a compound that is named as a salt.
Target: T1, His-tagged recombinant human TrkA (Homo sapiens, UniProt P04629)
T1 construct: 6HIS tagged cytoplasmic domain from Invitrogen, Catalog No. PV3144; purchased Invitrogen PV3144
Assay: TrkA Kinase Binding Assay (LanthaScreen Eu)
Settings: averaged IC50; TR-FRET binding, 60 min, 22° C.; read-out: TrkA Enzyme IC50
Procedure: TrkA binding activity was determined in a TrkA LanthaScreen™ Eu Kinase Binding Assay. 5 nM His-tagged recombinant human TrkA (6HIS tagged cytoplasmic domain from Invitrogen, Catalog No. PV3144) was incubated with 4 nM Alexa-Fluor® Tracer 236 (Invitrogen Cat. No. PV5592), 2 nM biotinylated anti-His (Invitrogen Cat. No. PV6090), and 2 nM europium-labeled Streptavidin (Invitrogen Cat. No. PV5899), in buffer (25 mM MOPS, pH 7.5, 5 mM MgCl2, 0.005% Triton X-100). Three fold serial dilutions of compounds of the invention in DMSO were added to a final percentage of 2% DMSO. After 60-minute incubation at 22° C., the reaction was measured using the EnVision mutlimode plate reader (PerkinElmer) via TR-FRET dual wavelength detection at […]. The percent of control was calculated using a ratiometric emission factor. The IC50 values were determined by fitting a four parameter model to the percent of control data.
Table A provides averaged IC50 values for compounds of the invention when tested in the assay of Example A, where A represents an averaged IC50 value <100 nM; B represents an averaged IC50 value from 100 to 1,000 nM; and C represents an average 1050 value above 1000 nM.

T1 sequence (P04629 440-796 limits assumed): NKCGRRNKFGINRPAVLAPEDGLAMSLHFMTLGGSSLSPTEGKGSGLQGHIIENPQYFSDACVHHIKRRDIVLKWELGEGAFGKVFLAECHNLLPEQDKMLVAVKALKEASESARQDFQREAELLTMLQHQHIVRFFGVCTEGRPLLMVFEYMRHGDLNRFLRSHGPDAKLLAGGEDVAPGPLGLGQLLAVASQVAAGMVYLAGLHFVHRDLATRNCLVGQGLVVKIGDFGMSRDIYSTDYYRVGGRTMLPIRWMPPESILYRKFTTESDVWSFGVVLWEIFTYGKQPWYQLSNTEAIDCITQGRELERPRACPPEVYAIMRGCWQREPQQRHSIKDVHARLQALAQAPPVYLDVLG

Molecule	pIC50
CC(Cc1ccccc1)(NC(=O)Nc1c2c(nn1-c1ccccc1)CCC2)c1ccccc1 (stereo not shown) [Example 41, 1-(1,2-diphenylpropan-2-yl)-3-(2-phenyl-2,4,5,6-tetrahydrocyclopenta[c]pyrazol-3-yl)urea]	6.00 to 7.00
COCc1ccc(OC(F)(F)F)c(CNC(=O)Nc2c(C)c(OC[C@H]3CCN3)nn2-c2ccccc2)c1 [Example 91, (R)-1-(3-(azetidin-2-ylmethoxy)-4-methyl-1-phenyl-1H-pyrazol-5-yl)-3-(5-(methoxymethyl)-2-(trifluoromethoxy)benzyl)urea]	> 7.00
COCc1cccc(C(Cc2ccccc2)NC(=O)Nc2c(C)c(-c3cnn(C)c3)nn2-c2ccccc2)c1 (stereo not shown) [Example 129, 1-(1′,4-dimethyl-1-phenyl-1H,1′H-[3,4′-bipyrazol]-5-yl)-3-(1-(3-(methoxymethyl)phenyl)-2-phenylethyl)urea]	> 7.00
COCc1cccc(C(NC(=O)Nc2c(C)c(-c3cnn(C)c3)nn2-c2ccccc2)C(F)(F)F)c1 (stereo not shown) [Example 132]	< 6.00
COCc1ccc(OC(F)(F)F)c(CNC(=O)Nc2c(C)c(OC[C@H]3COCCN3C)nn2-c2ccccc2)c1 [Example 113]	> 7.00
O=C(Nc1c2c(nn1-c1ccccc1)CCC2)NC(Cc1ccccc1)c1ccccc1 (stereo not shown) [Example 40, 1-(1,2-diphenylethyl)-3-(2-phenyl-2,4,5,6-tetrahydrocyclopenta[c]pyrazol-3-yl)urea]	6.00 to 7.00
Cc1c(OCC2CCN(C)CC2)nn(-c2ccccc2)c1NC(=O)NCc1ccccc1OC(F)(F)F [Example 115, 1-(4-methyl-3-((1-methylpiperidin-4-yl)methoxy)-1-phenyl-1H-pyrazol-5-yl)-3-(2-(trifluoromethoxy)benzyl)urea]	> 7.00
COCc1ccc(OC(F)(F)F)c(CNC(=O)Nc2c(C)c(O[C@@H]3CCN(C)C[C@@H]3F)nn2-c2ccccc2)c1 [Example 101, 1-(3-(((3S,4R)-3-fluoro-1-methylpiperidin-4-yl)oxy)-4-methyl-1-phenyl-1H-pyrazol-5-yl)-3-(5-(methoxymethyl)-2-(trifluoromethoxy)benzyl)urea]	> 7.00
COc1ccccc1CC(Cc1ccccc1)NC(=O)Nc1c2c(nn1-c1ccccc1)CCC2 (stereo not shown) [Example 48, 1-(1-(2-methoxyphenyl)-3-phenylpropan-2-yl)-3-(2-phenyl-2,4,5,6-tetrahydrocyclopenta[c]pyrazol-3-yl)urea]	6.00 to 7.00
COCc1ccc(OC(F)(F)F)c(CNC(=O)Nc2c(C)c(OCC3CCN(C)C3)nn2-c2ccccc2)c1 (stereo not shown) [Example 106, 1-(5-(methoxymethyl)-2-(trifluoromethoxy)benzyl)-3-(4-methyl-3-((1-methylpyrrolidin-3-yl)methoxy)-1-phenyl-1H-pyrazol-5-yl)urea hydrochloride]	> 7.00
5-(3-(2-(difluoromethoxy)-5-(methoxymethyl)benzyl)ureido)-N,4-dimethyl-1-phenyl-1H-pyrazole-3-carboxamide [Example 51]	> 7.00
COCc1ccc(C2CCC2)c(CNC(=O)Nc2c3c(nn2-c2ccccc2)CS(=O)(=O)C3)c1 [Example 121, 1-(2-cyclobutyl-5-(methoxymethyl)benzyl)-3-(5,5-dioxido-2-phenyl-4,6-dihydro-2H-thieno[3,4-c]pyrazol-3-yl)urea]	> 7.00
COCc1ccc(C2CC2)c(CNC(=O)Nc2c(C)c(-c3cnc(C)nc3)nn2-c2ccccc2)c1 [Example 1, 1-(2-cyclopropyl-5-(methoxymethyl)benzyl)-3-(4-methyl-3-(2-methylpyrimidin-5-yl)-1-phenyl-1H-pyrazol-5-yl)urea]	> 7.00
CCOc1ccc(C2CC2)c(CNC(=O)Nc2c(C)c(-c3cnn(C)c3)nn2-c2ccccc2)c1 [Example 15, 1-(2-cyclopropyl-5-ethoxybenzyl)-3-(1′,4-dimethyl-1-phenyl-1H,1′H-[3,4′-bipyrazol]-5-yl)urea]	> 7.00
COCc1ccc(C2CCC2)c(CNC(=O)Nc2c(C)c(=O)[nH]n2-c2ccccc2)c1 [Example 122, 1-(2-cyclobutyl-5-(methoxymethyl)benzyl)-3-(4-methyl-5-oxo-2-phenyl-2,5-dihydro-1H-pyrazol-3-yl)urea]	> 7.00
COCc1cccc(C(NC(=O)Nc2c(C)c(-c3cnn(C)c3)nn2-c2ccccc2)C2CC2)c1 (stereo not shown) [Example 28, 1-(cyclopropyl(3-(methoxymethyl)phenyl)methyl)-3-(1′,4-dimethyl-1-phenyl-1H,1′H-[3,4′-bipyrazol]-5-yl)urea]	6.00 to 7.00

Molecule	pIC50
COCc1cccc(C(NC(=O)Nc2c(C)c(-c3ccn(C)c(=O)c3)nn2-c2ccccc2)C2CC2)c1 (stereo not shown) [Example 27, 1-(cyclopropyl(3-(methoxymethyl)phenyl)methyl)-3-(4-methyl-3-(1-methyl-2-oxo-1,2-dihydropyridin-4-yl)-1-phenyl-1H-pyrazol-5-yl)urea]	6.00 to 7.00
COCc1ccc(OC(F)(F)F)c(CNC(=O)Nc2c(C)c(OC[C@@H]3CCN3)nn2-c2ccccc2)c1 [Example 92, (S)-1-(3-(azetidin-2-ylmethoxy)-4-methyl-1-phenyl-1H-pyrazol-5-yl)-3-(5-(methoxymethyl)-2-(trifluoromethoxy)benzyl)urea]	> 7.00
COCc1ccc(CN)c(CNC(=O)Nc2c(C)c(-c3cnn(C)c3)nn2-c2ccccc2)c1 [Example 118, 1-(2-(aminomethyl)-5-(methoxymethyl)benzyl)-3-(1′,4-dimethyl-1-phenyl-1H,1′H-[3,4′-bipyrazol]-5-yl)urea]	6.00 to 7.00
COCc1ccc(OC(F)(F)F)c(CNC(=O)Nc2c(C)c(OC[C@@H]3CN(C)CCO3)nn2-c2ccccc2)c1 [Example 114, (S)-1-(5-(methoxymethyl)-2-(trifluoromethoxy)benzyl)-3-(4-methyl-3-((4-methylmorpholin-2-yl)methoxy)-1-phenyl-1H-pyrazol-5-yl)urea]	> 7.00
COCc1ccc(OC(F)(F)F)c(CNC(=O)Nc2c(C)c(OC[C@@H](C)N)nn2-c2ccccc2)c1 [Example 97, (R)-1-(3-(2-aminopropoxy)-4-methyl-1-phenyl-1H-pyrazol-5-yl)-3-(5-(methoxymethyl)-2-(trifluoromethoxy)benzyl)urea]	> 7.00
COCc1ccc(C2(OC)CCC2)c(CNC(=O)Nc2c(C)c(-c3ccc(C)nc3)nn2-c2ccccc2)c1 [Example 24, 1-(2-(1-methoxycyclobutyl)-5-(methoxymethyl)benzyl)-3-(4-methyl-3-(6-methylpyridin-3-yl)-1-phenyl-1H-pyrazol-5-yl)urea]	6.00 to 7.00
COCc1ccc(OC(F)(F)F)c(CNC(=O)Nc2c(C)c(O[C@H]3CCNC3)nn2-c2ccccc2)c1 [Example 83, (S)-1-(5-(methoxymethyl)-2-(trifluoromethoxy)benzyl)-3-(4-methyl-1-phenyl-3-(pyrrolidin-3-yloxy)-1H-pyrazol-5-yl)urea]	> 7.00
COCc1ccc(C2CCCC2)c(CNC(=O)Nc2c(C)c(-c3ccc(C)nc3)nn2-c2ccccc2)c1 [Example 13, 1-(2-cyclopentyl-5-(methoxymethyl)benzyl)-3-(4-methyl-3-(6-methylpyridin-3-yl)-1-phenyl-1H-pyrazol-5-yl)urea]	> 7.00
CSc1ccc(C2CCC2)c(CNC(=O)Nc2c(C)c(-c3cnn(C)c3)nn2-c2ccccc2)c1 [Example 127, 1-(2-cyclobutyl-5-(methylthio)benzyl)-3-(1′,4-dimethyl-1-phenyl-1H,1H-[3,4′-bipyrazol]-5-yl)urea]	6.00 to 7.00
COCc1ccc(C2(F)COC2)c(CNC(=O)Nc2c(C)c(-c3cnn(C)c3)nn2-c2ccccc2)c1 [Example 31, 1-(1′,4-dimethyl-1-phenyl-1H,1′H-[3,4′-bipyrazol]-5-yl)-3-(2-(3-fluorooxetan-3-yl)-5-(methoxymethyl)benzyl)urea]	> 7.00
COCc1ccc(OC2CCC2)c(CNC(=O)Nc2c(C)c(-c3cnn(C)c3)nn2-c2ccccc2)c1 [Example 18, 1-(2-cyclobutoxy-5-(methoxymethyl)benzyl)-3-(1′,4-dimethyl-1-phenyl-1H,1′H-[3,4′-bipyrazol]-5-yl)urea]	6.00 to 7.00
COCc1ccc(OC(F)(F)F)c(CNC(=O)Nc2c(C)c(O[C@@H]3CCNC3)nn2-c2ccccc2)c1 [Example 84, (R)-1-(5-(methoxymethyl)-2-(trifluoromethoxy)benzyl)-3-(4-methyl-1-phenyl-3-(pyrrolidin-3-yloxy)-1H-pyrazol-5-yl)urea]	> 7.00
O=C(Nc1c2c(nn1-c1ccccc1)CCC2)NC(CCC(F)(F)F)Cc1ccccc1 (stereo not shown) [Example 49, 1-(2-phenyl-2,4,5,6-tetrahydrocyclopenta[c]pyrazol-3-yl)-3-(5,5,5-trifluoro-1-phenylpentan-2-yl)urea]	6.00 to 7.00
COCc1ccc(OC(F)(F)F)c(CNC(=O)Nc2c(C)c(OCCO)nn2-c2ccccc2)c1 [Example 63, 1-(3-(2-hydroxyethoxy)-4-methyl-1-phenyl-1H-pyrazol-5-yl)-3-(5-(methoxymethyl)-2-(trifluoromethoxy)benzyl)urea]	> 7.00
COCc1ccc(OC(F)F)c(CNC(=O)Nc2c(C)c(-c3cnc(OC)nc3)nn2-c2ccccc2)c1 [Example 62, 1-(2-(difluoromethoxy)-5-(methoxymethyl)benzyl)-3-(3-(2-methoxypyrimidin-5-yl)-4-methyl-1-phenyl-1H-pyrazol-5-yl)urea]	> 7.00
